Laboratory results published in the supplement of paper PMC11061612.

Experiments:
Assay in all cases: Bliss excess, mean over the matrix (fraction); higher = more synergy
[1] = system: MFH-ino (Other Solid Carcinomas)
Summary of the method: (§1)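 After 24 hours at 37°C and 5% CO2 in 1536-well plates, cells in DMEM/F12 or RPMI plus 10% FBS received two-drug dose matrices for 72 hours. Viability came from CellTiter-Glo 2.0 luminescence and was scaled as inhibition, anchored at 0 by vehicle wells and at 1 by blank wells. Combination Emax is taken as the second-highest inhibition in the matrix, and Bliss excess as the observed combination effect less EA + EB − EA·EB, with EA and EB the single-agent effects.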

[2] = system: JiyoyeP-2003 (Burkitt's Lymphoma)
Summary of the method: as §1

[3] = system: MDA-MB-157 (Breast Carcinoma)
Summary of the method: as §1

IGR-1 (Melanoma) = system: IGR-1 (Melanoma)
Summary of the method: as §1

CAL-78 (Chondrosarcoma) = system: CAL-78 (Chondrosarcoma)
Summary of the method: as §1

[4] = system: G-292-Clone-A141B1 (Osteosarcoma)
Summary of the method: as §1

[5] = system: NCI-H1793 (Lung Adenocarcinoma)
Summary of the method: as §1

[6] = system: KARPAS-620 (Plasma Cell Myeloma)
Summary of the method: as §1

[7] = system: 697 (B-Lymphoblastic Leukemia)
Summary of the method: as §1

[8] = system: CFPAC-1 (Pancreatic Carcinoma)
Summary of the method: as §1

[9] = system: MDA-MB-231 (Breast Carcinoma)
Summary of the method: as §1

[10] = system: C3A (Hepatocellular Carcinoma)
Summary of the method: as §1

[11] = system: SW780 (Bladder Carcinoma)
Summary of the method: as §1

SN12C (Kidney Carcinoma) = system: SN12C (Kidney Carcinoma)
Summary of the method: as §1

[12] = system: KATOIII (Gastric Carcinoma)
Summary of the method: as §1

[13] = system: EM-2 (Chronic Myelogenous Leukemia)
Summary of the method: as §1

[14] = system: KM-H2 (Hodgkin's Lymphoma)
Summary of the method: as §1

[15] = system: HPAC (Pancreatic Carcinoma)
Summary of the method: as §1

[16] = system: NALM-6 (B-Lymphoblastic Leukemia)
Summary of the method: as §1

[17] = system: SNU-C5 (Colorectal Carcinoma)
Summary of the method: as §1

SMILES	Bliss excess [1]	Bliss excess [2]	Bliss excess [3]	Bliss excess (IGR-1 (Melanoma))	Bliss excess (CAL-78 (Chondrosarcoma))	Bliss excess [4]	Bliss excess [5]	Bliss excess [6]	Bliss excess [7]	Bliss excess [8]	Bliss excess [9]	Bliss excess [10]	Bliss excess [11]	Bliss excess (SN12C (Kidney Carcinoma))	Bliss excess [12]	Bliss excess [13]	Bliss excess [14]	Bliss excess [15]	Bliss excess [16]	Bliss excess [17]
COc1cc2ncnc(Nc3ccc(F)c(Cl)c3)c2cc1OCCCN1CCOCC1 [Gefitinib] + CC(C)n1c(=O)n(C)c2cnc3cc(F)c(-c4ccc(OCCCN5CCCCC5)nc4)cc3c21 [AZD1390] (first compound max 10 µM, 7x7, partner max 0.3 µM)	-0.0761	-0.0386	-0.0453	-0.006	-0.0625	-0.0548	-0.0406	-0.0538	-0.0787	-0.0676	-0.0659	-0.11	-0.0642	-0.0255	-0.0113	-0.0507	-0.0312	-0.0607	-0.0643	-0.0751
COc1cc2c(cc1OCCCCCOc1cc3c(cc1OC)C(=O)N1C=C(C)C[C@H]1C=N3)N=C[C@@H]1CC(C)=CN1C2=O [SG3199] + O=C(c1cc(Cc2n[nH]c(=O)c3ccccc23)ccc1F)N1CCN(C(=O)C2CC2)CC1 [Olaparib] (first compound max 0.001 µM, 7x7, partner max 10 µM)	-0.0739	-0.0016	-0.0185	-0.0189	-0.0831	-0.0571	-0.0323	-0.0015	0.0376	-0.0329	-0.0808	-0.0528	-0.0497	-0.0697	-0.0365	0.0107	0.0232	-0.0232	-0.0302	-0.0362
Cn1cnc2c(F)c(Nc3ccc(Br)cc3Cl)c(C(=O)NOCCO)cc21 [Selumetinib] + CC(C)n1c(=O)n(C)c2cnc3cc(F)c(-c4ccc(OCCCN5CCCCC5)nc4)cc3c21 [AZD1390] (first compound max 10 µM, 7x7, partner max 0.3 µM)	-0.023	-0.0153	-0.032	-0.0297	-0.0665	-0.0567	-0.0503	0.0201	-0.0227	-0.0627	0.0101	0.0046	-0.0542	-0.0313	0.011	0.0304	-0.027	-0.0401	-0.0248	-0.0283
